In publication PMC10466176, “Sequential analysis for identification of byproduct from N-benzylation reaction: wound healing and anti-inflammatory potential of the byproduct 4-chlorobenzyl 2-((4-chlorobenzyl)amino)benzoate” (RSC Advances, 2023):

Molecular target: T1, COX-2 (cyclooxygenase-2) (Homo sapiens, UniProt P35354)
T1 construct: gene PTGS2
T1 sequence (P35354 18-604): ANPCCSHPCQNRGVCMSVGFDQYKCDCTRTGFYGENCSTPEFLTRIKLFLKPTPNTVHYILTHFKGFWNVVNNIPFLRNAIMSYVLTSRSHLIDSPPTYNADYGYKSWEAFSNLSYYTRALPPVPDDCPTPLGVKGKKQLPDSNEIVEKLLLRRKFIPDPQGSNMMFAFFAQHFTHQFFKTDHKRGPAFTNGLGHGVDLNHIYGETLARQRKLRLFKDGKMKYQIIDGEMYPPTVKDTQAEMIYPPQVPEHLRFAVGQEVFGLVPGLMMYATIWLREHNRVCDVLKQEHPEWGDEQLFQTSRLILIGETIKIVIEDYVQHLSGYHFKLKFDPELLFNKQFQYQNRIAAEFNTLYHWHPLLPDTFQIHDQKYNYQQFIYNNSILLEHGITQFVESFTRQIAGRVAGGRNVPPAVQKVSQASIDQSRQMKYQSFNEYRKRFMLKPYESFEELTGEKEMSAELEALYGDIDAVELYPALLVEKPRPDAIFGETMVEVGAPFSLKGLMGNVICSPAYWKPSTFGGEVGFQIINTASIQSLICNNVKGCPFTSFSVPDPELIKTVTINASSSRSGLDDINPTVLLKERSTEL
Assay: COX-2 enzyme assay with ELISA kit (SEA699Hu)
Format: biochemical

O=C(OCc1ccc(Cl)cc1)c1ccccc1NCc1ccc(Cl)cc1 [CCAB, 4-chlorobenzyl 2-((4-chlorobenzyl)amino)benzoate]
IC50: 410 nM
